PubChem BioAssay (NCI)
Values joined by “and” are separate entries in the source; they are usually repeats but may differ in a detail not shown here. Equal values may be shown once.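 Following 48 hours of exposure in 96-well plates, responses at five concentrations were used to interpolate endpoints linearly. GI50 marks 50% less growth. At the TGI there is no net growth.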

Experiments:
Test in all cases: NCI-60 cell line screen, 48 h
786-0 renal = tested on: 786-0 renal
CAKI-1 renal = tested on: CAKI-1 renal
DU-145 prostate = tested on: DU-145 prostate
HCT-116 colon = tested on: HCT-116 colon
HCT-15 colon = tested on: HCT-15 colon
HL-60(TB) leukemia = tested on: HL-60(TB) leukemia
K-562 leukemia = tested on: K-562 leukemia
NCI-H522 lung = tested on: NCI-H522 lung
U251 CNS = tested on: U251 CNS
UACC-62 melanoma = tested on: UACC-62 melanoma

Compound | TGI (786-0 renal) | TGI (CAKI-1 renal) | TGI (DU-145 prostate) [µM] | TGI (HCT-116 colon) | TGI (HCT-15 colon) [µM] | TGI (HL-60(TB) leukemia) [µM] | TGI (K-562 leukemia) [µM] | TGI (NCI-H522 lung) | TGI (U251 CNS) | TGI (UACC-62 melanoma) [µM] | GI50 (786-0 renal) | GI50 (CAKI-1 renal) | GI50 (DU-145 prostate) [µM] | GI50 (HCT-116 colon) | GI50 (HCT-15 colon) [µM] | GI50 (HL-60(TB) leukemia) [µM] | GI50 (K-562 leukemia) [µM] | GI50 (NCI-H522 lung) | GI50 (U251 CNS) [µM] | GI50 (UACC-62 melanoma) [µM]
Cc1cn(C2CC(OC(=O)c3ccc(Cl)cc3)C(COC(=O)c3ccc(Cl)cc3)O2)c(=O)[nH]c1=O (stereo not drawn) | > 100 µM | > 100 µM | > 100 | > 100 µM | > 100 | > 100 | > 100 | > 100 µM | > 100 µM | > 100 |  |  |  |  |  |  |  |  |  | 
CC1(C)N=C(N)N=C(N)N1c1ccc(CCC(=O)Nc2ccc(S(=O)(=O)F)cc2)c(Cl)c1 | > 100 µM | > 81.1 µM | > 100 | > 100 µM | > 100 | > 100 | > 100 | > 100 µM | > 100 µM | > 100 | 0.697 µM | 7.73 µM | 0.593 | 0.268 µM | 2.92 | 0.142 | 0.342 | 0.642 µM | 0.498 | 0.287
CN(C)C/C=C/C(=O)Nc1ccc(C(=O)N[C@@]2(C)CCC[C@@H](Nc3ncc(Cl)c(-c4c[nH]c5ccccc45)n3)C2)nc1 | 0.236 µM | 1.11 µM | 1.09 | 0.124 µM | 1.05 | 0.0665 | 5.32 | 0.0664 µM |  | 0.0728 | < 0.0146 µM | < 0.01 µM | 0.0153 | < 0.01 µM | 0.0286 | 0.0145 | < 0.01 | 0.0178 µM |  | < 0.01
COc1cc(C2c3cc4c(cc3OC(C)(N3CCCC3)C2C)OCO4)cc(OC)c1OC (stereo not drawn) | > 100 µM | > 20.2 µM | 2.57 | 16.5 µM | 11.3 | 0.685 | 0.908 | 0.612 µM | 23.3 µM | 19.1 |  |  |  |  |  |  |  |  |  | 
Cc1cn(-c2cc(NC(=O)c3cccc(C#Cc4cccc5[nH]nc(N)c45)c3)cc(C(F)(F)F)c2)cn1 | 20.6 µM | 16.6 µM | 40.7 | 18.8 µM | > 100 | 32.6 | > 100 | 49 µM | 20.3 µM | 12.7 | 4.72 µM | 4.23 µM | 10.3 | 2.62 µM | 4.49 | 3.22 |  | 5.48 µM | 5.15 | 2.54
Cc1ccc(C)c(NC(=O)CC2Sc3ccccc3NC2=O)c1 (stereo not drawn) | 30.7 µM and 58.6 µM | 33.1 µM and 99.1 µM | > 100 | 25.2 µM and > 94.5 µM | > 100 | > 100 | > 100 | 60.6 µM and > 93.8 µM | 25.4 µM and 52.2 µM | > 100 |  | 18.9 µM and 45.2 µM |  | 15.9 µM and 36.9 µM |  |  |  | 21.7 µM and 45.6 µM |  | 
O=C(NC(=O)c1c(F)cccc1F)Nc1cccc(Oc2ncc(Cl)cn2)c1 | > 100 µM | > 100 µM | > 100 | > 100 µM | > 100 | > 100 | > 100 | > 100 µM | > 83.6 µM | > 100 |  |  |  |  |  |  |  |  |  | 
COCCOC(=O)C1=C(O)c2ccccc2S(=O)(=O)N1C | > 100 µM | > 100 µM | > 100 | > 100 µM | > 100 | > 100 | > 100 | > 100 µM | > 100 µM | > 100 |  |  |  |  |  |  |  |  |  | 
N[C@H](C(=O)O)[C@@H]1CC(Cl)=NO1 | > 1000 µM | 160 µM | > 1000 | > 1000 µM | > 912 |  | > 944 | 271 µM | > 1000 µM | 401 |  | 23.9 µM | 99.6 | 3.71 µM | 8.33 | 4.89 | 7.16 |  | 9.73 | 35.1
COc1cccc2c1C(=N)c1c(O)c3c(c(O)c1C2=O)C[C@@](O)(C(C)=O)C[C@@H]3O[C@H]1C[C@H](N)[C@H](O)[C@H](C)O1 | 4.28 µM | 4.07 µM | 1.72 | 6.6 µM | 18.2 | 2.36 | 10.9 | 1.5 µM | 2.14 µM | 1.79 | 0.254 µM | 0.445 µM | 0.292 | 0.277 µM | 2.53 | 0.112 | 0.322 | 0.256 µM | 0.144 | 0.248
C=C(C)[C@@H]1CC[C@]2(COCCCN)CC[C@]3(C)[C@H](CC[C@@H]4[C@@](C)(CCCNCCCN)[C@H](C(=C)C)CC[C@]43C)[C@@H]12 | 2.96 µM | 3.13 µM | 3.43 | 2.84 µM | 2.63 | 3.47 | 3.57 | 3.78 µM | 3.19 µM | 3.22 | 1.56 µM | 1.75 µM | 1.92 | 1.45 µM | 1.3 | 1.64 | 1.67 | 1.88 µM | 1.7 | 1.71
CC(C)(C)c1cc([N+](=O)[O-])cc([N+](=O)[O-])c1O | > 10 µM | > 10 µM | > 10 | > 10 µM | > 10 | > 10 | > 10 | > 10 µM | > 10 µM | > 10 |  |  |  |  |  |  |  |  |  | 
CCCOC(=O)N[C@H]1CCc2c(Cl)c(OC)c(OC)c(OC)c2-c2ccc(SC)c(=O)cc21 | 21.5 µM | 14.1 µM | 0.0575 | 12.7 µM | 16.6 | < 0.01 | > 100 | 0.271 µM | 12.2 µM | 13.8 | < 0.0174 µM | < 0.0226 µM | < 0.01 | < 0.01 µM | < 0.01 | < 0.01 | < 0.01 | < 0.01 µM | < 0.01 | < 0.01
CN(c1ccc(NC(=O)Nc2c(Cl)cccc2Cl)cc1)c1ccnc(Nc2cccc(CS(C)(=O)=O)c2)n1 | 10.6 µM | 21 µM | 6.72 | 7.45 µM | > 25 | > 25 | > 25 | 9.23 µM | 9.61 µM | 8.36 | 3.63 µM | 4.53 µM | 3.07 | 1.3 µM | 5.6 | 24.6 | 1.54 | 3.1 µM | 2.62 | 3.11
C=C(C)C1CC2(C)C(C)CC(O)CC2C(OC(=O)C=C(C)C)C1O (stereo not drawn) | > 100 µM | > 100 µM | > 100 | > 100 µM | > 100 | 50.5 | > 100 | > 100 µM | > 100 µM | > 100 |  |  |  |  |  |  |  |  |  | 
Cc1cc(N(CC(C)Br)CC(C)Br)ccc1N=Nc1ccccc1C(=O)O (stereo not drawn) | 16.4 µM | 6.9 µM | 20 | 20.3 µM | 29 | 36.6 | 4.8 | 9.02 µM | 22 µM | 3.4 |  |  |  |  |  |  |  |  |  | 
NCCCNCCS | > 100 µM | > 100 µM | > 100 | > 100 µM | > 100 | > 100 | > 100 | > 100 µM | > 100 µM | > 100 | > 100 µM and 49.5 µM |  |  |  |  |  |  |  |  | 
CCCCCCCCn1ccc2cc(NC(=O)Cn3cc(CN4CCCCCC4)nn3)ccc21 | 3.07 µM | 2.89 µM | 3.81 | 3.1 µM | 3.17 | 3.75 | 3.6 | 3.59 µM | 3.29 µM | 3.45 | 1.68 µM | 1.49 µM | 1.97 | 1.66 µM | 1.6 | 1.87 | 1.67 | 1.85 µM | 1.83 | 1.93
Cc1ccc(C2=C(c3ccc(C)cc3)C3(c4ccc(C)cc4)C4C(=O)OC(=O)C4C2(c2ccc(C)cc2)S3=O)cc1 (stereo not drawn) | 27.7 µM | > 100 µM | > 100 | 92.5 µM | > 100 | > 100 | > 100 | > 100 µM | 24.9 µM | 19.6 | 6.91 µM | 26.3 µM | 47.6 | 23.7 µM | 33.5 | 25.5 | 27.7 | 34 µM | 6.31 | 3.57
[N-]=[N+]=NCCCn1c2c(c3ccc([N+](=O)[O-])cc3c1=O)C(=O)c1ccccc1-2 | > 100 µM | 43.3 µM | > 100 | > 100 µM | > 100 | > 100 | > 100 | > 100 µM | > 100 µM | > 100 | > 100 µM | 5.11 µM | > 100 | 8.17 µM | 75.5 | 0.0101 | 1.05 | 70.3 µM | 4.28 | 29.6
O=NNc1ccc2ccccc2n1 | > 100 µM | > 100 µM | > 100 | > 100 µM | > 100 | > 100 | > 100 | > 100 µM | > 100 µM | > 100 |  |  |  |  |  |  |  |  |  | 
O=C1C(=O)c2ccccc2C(O)=C1C(C1=C(O)c2ccccc2C(=O)C1=O)c1ccc(Cl)cc1 | 11.2 µM | 23.8 µM | 10.3 | 18.2 µM | 32 | 4.83 | 39.2 | 27.3 µM | 16.3 µM | 23.5 |  |  |  |  |  |  |  |  |  | 
